Experiments:
[1] = Preliminary analysis of hygroscopicity / hydration state; assay type: physicochemical; details: solid compound
[2] = Dynamic Vapour Sorption (DVS) measurements; assay type: physicochemical
Excerpt: Dynamic Vapour Sorption (DVS) measurements were made for the compound of Example 12 by exposing a solid sample to controlled relative humidity (% RH) and weight change recorded with time on an automated water sorption analyser.

Compound	hygroscopicity (preliminary analysis) [1]	weight lost on drying (sorption/desorption isotherm) ([2]; DVS, loss due to residual solvent or surface moisture) [%]	hygroscopicity ([2]; solid sample exposed to controlled relative humidity)
CCCCOc1ncc(C(C)=O)cc1-c1nc2c(CC)n(C3CN(CC)C3)nc2c(=O)[nH]1 [compound 1A, 5-(5-Acetyl-2-butoxy-3-pyridinyl)-3-ethyl-2-(1-ethyl-3-azetidinyl)-2,6-dihydro-7H-pyrazolo[4,3-d]pyrimidin-7-one]	anhydrous and non-hygroscopic		
CCCCOc1ncc(C(C)=O)cc1-c1nc2c(CC)n(C3CN(CC)C3)nc2c(=O)[nH]1.O=S(=O)(O)c1ccccc1 [Example 12, 5-(5-Acetyl-2-butoxy-3-pyridinyl)-3-ethyl-2-(1-ethyl-3-azetidinyl)-2,6dihydro-7H-pyrazolo[4,3-d]pyrimidin-7-one benzenesulfonate]		0.9	non-hygroscopic
